According to patent US8937065B2, “Compositions and methods for modulating a kinase” (Clevexel Pharma, priority 2011, dated 2015):

Experiments:
RS4; 11 cells = assay: Proliferation of RS4; 11 cells (Cell Titer-Glo); details: Homo sapiens, B cells, outcome-based, read-out: IC50 Proliferation RS4, 11 cells (ALL)
Protocol: Growth inhibitory activity against the human tumor cell lines, RS4; 11 and Daudi was determined using Promega's Cell Titer-Glo® assay. The human tumor cells were placed in a 96-well microculture plate (Costar white, flat bottom #3917) in a total volume of 90 μL/well. After 24 hours of incubation in a humidified incubator at 37° C. with 5% CO2 and 95% air, […] serially diluted test agents in growth medium were added to each well. After 96 total hours of culture in a CO2 incubator, the plated cells and Cell Titer-Glo® (Promega # G7571) reagents were brought to room temperature to equilibrate for 30 minutes. 100 μL of Cell Titer-Glo® reagent was added to each well. The plate was shaken for 2 minutes and then left to equilibrate for 10 minutes before reading luminescence on the Tecan GENios microplate reader.
Percent inhibition of cell growth was calculated relative to untreated control wells. All tests were performed in duplicate at each concentration level. The IC50 value for the test agents was estimated using Prism 3.03 by curve-fitting the data using the following four parameter-logistic equation: […]

hLM T½ (stability) = assay type: in vitro ADME; details: human, liver microsomes
[1] = tested on: B-cell lymphoma (Daudi cell line) xenograft; assay: Mouse xenograft study with B-cell lymphoma (Daudi cell line); assay type: in vivo; details: 28 days, Balb/c nude mice
Protocol: The anti-tumor effect of compounds of the invention can be evaluated in vivo. For example, the anti-tumor effect of compound 7A was determined using a mouse xenograft study with B-cell lymphoma (Daudi cell line). Mice (n=8 all) were administered compound 7A over a period of 28 days. The compound was dosed at 100 mg/kg IP QD and 300 mg/kg PO QD. Tumor volume was measured over time.
The Daudi cell line culture was prepared using Daudi cell line (ATCC, USA), RPMI 1640 medium (Invitrogen, USA), and FBS (Invitrogen, Australia). […]
The mice were weighed at each dosing and recorded every day. Tumor size was measured every other day in two dimensions using a caliper, and the volume was expressed in mm^3 using the formula: V=0.5 a×b^2 where a and b were the long and short diameters of the tumor, respectively. […] Tumor volume, weight of dissected tumors, and mouse body weight were measured and recorded. […]
The difference between the mean values of tumor volume in treated and vehicle groups was analyzed for significance using one way ANOVA test at each time point after log transformation. The difference between the mean values of tumor weight in treated and vehicle groups was analyzed for significance using t-test. […]

IL-2 stimulated PBMCs = assay: IL-2-stimulated proliferation of PBMC (Cell Titer Glo); details: read-out: IC50 T cells outcome-based: IL-2 stimulated PBMCs Proliferation
Protocol: Fresh blood collection and PBMC separation assay • 1. Three donors were used to collect enough blood samples. The fresh blood was stored in Heparin Sodium tubes. • 2. Transferred blood to 50 ml centrifugal tube. 15 ml of blood was put into a tube. • 3. Added same volume of DPBS into the blood tube and mixed gently. • 4. Slowly underlayed 10 ml Ficoll using pipette (being careful to not disturb the 2 phases). • 5. Centrifuged 30 min at 800 g at RT without break. • 6. Aspirated the buffy coat (containing PBMC) at the interface between serum and ficoll. The PBMC was washed by enough DPBS and centrifuged at 900 g to remove the Ficoll. • 7. Added RPMI-1640 Medium to the collected PBMC and counted the concentration of PBMC. At least 1 million of PBMC were separated from 1 ml of blood.
IL-2-induced proliferation of PBMC by Cell Titer Glow assay • 1. Counted the PBMC numbers and adjusted cell density to 1.0*10^6/ml. • 2. Seeded cells in complete RPMI in the presence of PHA (phytohemagglutinin, 10 ug/ml). • 3. Added 100 μl of cell suspension to the 96-well plate (white) according to the planned plate map. So there were 1.0*10^5 cells in each well. Cultured for 3 days. • 4. Replaced media with complete RPMI plus IL-2, 100 units/ml and compounds, e.g compounds were added only at IL-2 incubation step. Cultured for 2 days. • 5. […] Recorded luminescence with Flexstation 3 and export the data.

## O=C(CN1CCOCC1)Nc1cccc(-c2nc(-c3c[nH]c(C(=O)N4CCCC4)c3)cs2)c1 [7A, 2-morpholino-N-(3-(4-(5-(pyrrolidine-1-carbonyl)-1H-pyrrol-3-yl)thiazol-2-yl)phenyl)acetamide]
RS4; 11 cells
  IC50: 500 nM
hLM T½ (stability)
  half-life: 36 min
[1]; 100 mg/kg IP QD
  tumor growth inhibition: 89%
[1]; 300 mg/kg PO QD
  tumor growth inhibition: 87%
IL-2 stimulated PBMCs
  IC50: 3 to 6 µM
